In patent US11572588B2, “Methods of evaluating treatment efficacy and/or treatment duration in mycobacterial diseases” (priority 2017, dated 2023):

System: M. tuberculosis Erdman strain
Assay: highly lethal in vitro drug exposure of log-phase M. tuberculosis; killing and pre-rRNA/rRNA by RNAseq and ddPCR
Type: cell-based
Conditions: for pre-rRNA in M tuberculosis that survived exposure (FIG. 5, RNAseq reads): 48 h lethal exposure; for M. tuberculosis killed: 48 h of exposure, lethal dose, log phase culture; for 16S normalized counts, Transcripts per Million (TPM) / 23S normalized counts, Transcripts per Million (TPM) / ETS1 normalized counts, Transcripts per Million (TPM) / ITS1 normalized counts, Transcripts per Million (TPM) / ITS1/23S, Pre-RNA/23S (×10^4) / ETS1/23S, Pre-RNA/23S (×10^4): RNAseq; for ITS1/23S, Pre-RNA/23S (×10^4): control 466; for ETS1/23S, Pre-RNA/23S (×10^4): control 514; for effect on ETS1 and ITS1: relative to control
[1] = lethal in vitro exposure, Day 2
[2] = lethal in vitro exposure, Day 5
[3] = lethal in vitro exposure, Day 7

Row | SMILES | pre-rRNA in M tuberculosis that survived exposure (FIG. 5, RNAseq reads) | M. tuberculosis killed [%] | 16S normalized counts, Transcripts per Million (TPM) [1] | 23S normalized counts, Transcripts per Million (TPM) [1] | ETS1 normalized counts, Transcripts per Million (TPM) [1] | ITS1 normalized counts, Transcripts per Million (TPM) [1] | ITS1/23S, Pre-RNA/23S (×10^4) [1] | ETS1/23S, Pre-RNA/23S (×10^4) [1] | 16S normalized counts, Transcripts per Million (TPM) [2] | 23S normalized counts, Transcripts per Million (TPM) [2] | ETS1 normalized counts, Transcripts per Million (TPM) [2] | ITS1 normalized counts, Transcripts per Million (TPM) [2] | ITS1/23S, Pre-RNA/23S (×10^4) [2] | ETS1/23S, Pre-RNA/23S (×10^4) [2] | effect on ETS1 and ITS1 (lethal in vitro exposure) | 16S normalized counts, Transcripts per Million (TPM) [3] | 23S normalized counts, Transcripts per Million (TPM) [3] | ETS1 normalized counts, Transcripts per Million (TPM) [3] | ITS1 normalized counts, Transcripts per Million (TPM) [3] | ITS1/23S, Pre-RNA/23S (×10^4) [3] | other results
1 | [H]/N=C(/N)N[C@H]1[C@H](O)[C@@H](O)[C@H](O[C@@H]2O[C@@H](C)[C@](O)(C=O)[C@H]2O[C@@H]2O[C@@H](CO)[C@H](O)[C@@H](O)[C@@H]2NC)[C@@H](N/C(N)=N\[H])[C@@H]1O [Streptomycin, streptomycin] | abundant pre-rRNA | 99.99 | 453,930 TPM | 430,311 TPM | 78,749 TPM | 37,010 TPM | 860 ×10^4 | 1,830 ×10^4 | 406,987 TPM | 488,000 TPM | 72,994 TPM | 32,019 TPM | 656 ×10^4 | 1,496 ×10^4 | increased ETS1 and ITS1 | – | – | – | – | – | –
2 | COc1nc2ccc(Br)cc2cc1[C@@H](c1ccccc1)[C@@](O)(CCN(C)C)c1cccc2ccccc12 [Bedaquiline, bedaquiline] | negligible pre-rRNA | ~99.9 | 343,978 TPM | 654,924 TPM | 548 TPM | 551 TPM | 8.4 ×10^4 | 8.4 ×10^4 | – | – | – | – | – | – | – | 208,644 TPM | 788,154 TPM | 1,778 TPM | 1,425 TPM | 18.1 ×10^4 | ETS1/23S, Pre-RNA/23S (×10^4) [3]: 22.6 ×10^4; decrease of ETS1/23S relative to control (lethal in vitro exposure): > 20 fold; decrease of ITS1/23S relative to control (lethal in vitro exposure): > 20 fold
3 | NNC(=O)c1ccncc1 [Isoniazid, isoniazid] | abundant pre-rRNA | 99.99 | 423,197 TPM | 556,210 TPM | 12,092 TPM | 8,502 TPM | 153 ×10^4 | 217 ×10^4 | – | – | – | – | – | – | – | 451,670 TPM | 519,579 TPM | 16,987 TPM | 11,763 TPM | 226 ×10^4 | ETS1/23S, Pre-RNA/23S (×10^4) [3]: 327 ×10^4; decrease of ETS1/23S (lethal in vitro exposure): ~50%; decrease of ITS1/23S (lethal in vitro exposure): ~50%
4 | CO[C@H]1/C=C/O[C@@]2(C)Oc3c(C)c(O)c4c(O)c(c(/C=N/N5CCN(C)CC5)c(O)c4c3C2=O)NC(=O)/C(C)=C\C=C\[C@H](C)[C@H](O)[C@@H](C)[C@@H](O)[C@@H](C)[C@H](OC(C)=O)[C@@H]1C [Rifampin, rifampin] | negligible pre-rRNA | 99.99 | 375,111 TPM | 624,759 TPM | 58 TPM | 72 TPM | 1.15 ×10^4 | 0.92 ×10^4 | 306,538 TPM | 693,196 TPM | 30 TPM | 235 TPM | 3.39 ×10^4 | 0.44 ×10^4 | nearly complete abrogated ETS1 and ITS1 | – | – | – | – | – | decrease of ETS1/23S relative to control (lethal in vitro exposure): > 100 fold; decrease of ITS1/23S relative to control (lethal in vitro exposure): > 100 fold
